Laboratory results reported in patent publication US7173037B2, “Carbamate-substituted pyrazolopyridines” (Bayer HealthCare AG, priority 2002, dated 2007).
Read-outs that look alike come from different tables or passages of the source.

Assays:
rabbit aorta rings = assay: Vasorelaxant effect in vitro (phenylephrine-contracted aorta rings); assay type: cell-based; conditions: Oryctolagus cuniculus, phenylephrine contraction, read-out: IC50 (concentration necessary to reduce the height of the contraction by 50%)
Procedure: Rabbits are stunned by a blow to the back of the neck and are exsanguinated. The aorta is removed, freed of adherent tissue and divided into rings 1.5 mm wide, which are put singly under tension in 5 ml organ baths containing carbogen-gassed Krebs-Henseleit solution at 37° C. with the following composition (mM): NaCl:119; KCl:4.8; CaCl2×2H2O:1; MgSO4×7H2O:1.4; KH2PO4:1.2; NaHCO3:25; Glucose:10. The force of contraction is detected with Statham UC2 cells, amplified and digitized via A/D converters (DAS-1802 HC, Keithley Instruments Munich) and recorded in parallel on chart recorders. A contraction is generated by adding phenylephrine to the bath cumulatively in increasing concentration. After several control cycles, the substance to be investigated is investigated in each further run in increasing dosage in each case, and the height of the contraction is compared with the height of the contraction reached in the last preceding run. The concentration necessary to reduce the height of the control value by 50% (IC50) is calculated from this. The standard application volume is 5 μl, and the DMSO content in the bath solution corresponds to 0.1%.

rabbit penis erection = assay: Rabbit model (erection, length of the protruding penis); assay type: in vivo, chinchilla rabbits; conditions: oral administration, with simultaneous 0.2 mg/kg i.v. sodium nitroprusside SNP
Procedure: Adult male chinchilla rabbits weighing 3–5 kg are adapted to being kept singly for several days after delivery. They have free access to water and can take feed for two hours a day. The animals are kept in a 10/14-hour day/night rhythm (light on from 8.00 h), and the room temperature is 22–24° C.
Three to six animals are used in each treatment group and are weighed immediately before the start of the test. For the i.v. administration, the substances are dissolved in Transcutol (GATTEFOSSE GmbH) and diluted in the ratio 3/7 with a 20% strength Cremophor solution (Cremophor (BASF), water). A volume of 0.5 ml/kg is injected into the ear vein. Water-soluble substances are injected in 0.9% sodium chloride solution.
For oral administration, the test substances are dissolved in a 6:10:9.69 glycerol:water:polyethylene glycol mixture and administered by gavage in a volume of 1 ml/kg.
Under resting conditions, the rabbit penis is invisible in the pubic region and is completely covered by the penis skin. The erection is assessed by measuring the length of the protruding penis with a slide calliper. […] The animals are for this purpose removed from the cage each time, held firmly by the neck fur and the rear paws, turned on their backs and measured. […]

[1] = parameters: species or system rats; conditions: rat, in vivo, po
Procedure: The substance to be investigated is administered intravenously as solution to animals (e.g. mice, rats, dogs), and oral administration takes place as solution or suspension by gavage. After administration of the substance, blood is taken from the animals at fixed times and is heparinized, and then plasma is obtained therefrom by centrifugation. The substance is quantified analytically in the plasma by LC/MS/MS. The plasma concentration/time courses found in this way are used to calculate the pharmacokinetic parameters by means of a validated pharmacokinetic computer programme.
Inhibition of Cytochrome P450 Enzymes

CYP1A2 = assay: Induction of cytochrome P450 enzymes in human liver cell cultures, CYP1A2; assay type: in vitro ADME; conditions: human hepatocyte cultures, control = 1.0
CYP2B6 [2] = conditions: human, hepatocytes, 5 days
CYP2C19 [3] = conditions: human, hepatocytes, 5 days
CYP3A4 = conditions: human, hepatocytes
CYP2B6 [4] = assay: Induction of cytochrome P450 enzymes in human liver cell cultures, CYP2B6; conditions: human hepatocyte cultures, 2000 μM, control = 1.0
CYP2C19 [5] = assay: Induction of cytochrome P450 enzymes in human liver cell cultures, CYP2C19; conditions: human hepatocyte cultures, 2000 μM, control = 1.0

Question: For `COC(=O)N(C)c1cnc(-c2nn(Cc3ccccc3F)c3ncccc23)nc1N` [Example 1, Methyl 4-amino-2-[1-(2-fluorobenzyl)-1H-pyrazolo[3,4-b]pyridin-3-yl]-5-pyrimidinyl(methyl)carbamate], which IC50 (rabbit aorta rings) is on record?
Answer: 670 nM

Question: With `COC(=O)N(C)c1c(N)nc(-c2nn(Cc3ccccc3F)c3ncccc23)nc1N` [Example 8, Methyl 4,6-diamino-2-[1-(2-fluorobenzyl)-1H-pyrazolo[3,4-b]pyridin-3-yl]-5-pyrimidinyl(methyl)carbamate] as the compound, how does the IC50 (rabbit aorta rings) read?
Answer: 500 nM

Question: What about the minimal effective dose (rabbit penis erection) of the same compound?
Answer: 0.03 mg/kg

Question: What about the AUCstand ([1]; 0.3 mg/kg) of the same compound?
Answer: 0.326 kg·h/L

Question: What about the AUCstand ([1]; 1 mg/kg) of the same compound?
Answer: 0.548 kg·h/L

Question: What about the “Inductive effect on CYP1A2 activity (standardized)” value (shortened to “Inductive effect on CYP1A2 activity”) (CYP1A2; 0.01 μg/ml) of the same compound?
Answer: 0.76

Question: And the “Inductive effect on CYP1A2 activity” value (CYP1A2; 0.1 μg/ml)?
Answer: 0.70

Question: And the “Inductive effect on CYP1A2 activity” value (CYP1A2; 1.0 μg/ml)?
Answer: 0.90

Question: What about the “Inductive effect on CYP1A2 activity” value (CYP1A2; 10 μg/ml) of the same compound?
Answer: 1.38

Question: And the “Inductive effect on CYP2B6 activity (standardized)” value (shortened to “Inductive effect on CYP2B6 activity”) (CYP2B6 [2]; 0.01 μg/ml)?
Answer: 1.92

Question: And the “Inductive effect on CYP2B6 activity” value (CYP2B6 [2]; 0.1 μg/ml)?
Answer: 1.62

Question: And the “Inductive effect on CYP2B6 activity” value (CYP2B6 [2]; 1 μg/ml)?
Answer: 1.85

Question: What about the “Inductive effect on CYP2B6 activity” value (CYP2B6 [2]; 10 μg/ml) of the same compound?
Answer: 2.54

Question: What about the “Inductive effect on CYP2C19 activity (standardized)” value (CYP2C19 [3]; 0.01 μg/ml) of the same compound?
Answer: 1.30

Question: And the “Inductive effect on CYP2C19 activity (standardized)” value (CYP2C19 [3]; 0.1 μg/ml)?
Answer: 1.30

Question: And the “Inductive effect on CYP2C19 activity (standardized)” value (CYP2C19 [3]; 1 μg/ml)?
Answer: 1.12

Question: And the “Inductive effect on CYP2C19 activity (standardized)” value (CYP2C19 [3]; 10 μg/ml)?
Answer: 1.97

Question: What about the “Inductive effect on CYP3A4 activity (standardized)” value (shortened to “Inductive effect on CYP3A4 activity”) (CYP3A4; 5 days, 0.01 μg/ml) of the same compound?
Answer: 1.37

Question: What about the “Inductive effect on CYP3A4 activity” value (CYP3A4; 5 days, 0.1 μg/ml) of the same compound?
Answer: 1.60

Question: What about the “Inductive effect on CYP3A4 activity” value (CYP3A4; 5 days, 1 μg/ml) of the same compound?
Answer: 1.51

Question: And the “Inductive effect on CYP3A4 activity” value (CYP3A4; 5 days, 10 μg/ml)?
Answer: 3.47

Question: With `COc1ccc2[nH]c([S+]([O-])Cc3ncc(C)c(OC)c3C)nc2c1` (stereo not drawn) [OME, omeprazole, reference compound] as the compound, how does the “Inductive effect on CYP1A2 activity” value (CYP1A2; 100 μM) read?
Answer: 28.57

Question: And the “Inductive effect on CYP2B6 activity” value (CYP2B6 [2]; 100 μM)?
Answer: 1.54

Question: What about the “Inductive effect on CYP2C19 activity (standardized)” value (CYP2C19 [3]; 100 μM) of the same compound?
Answer: 1.61

Question: What about the “Inductive effect on CYP3A4 activity” value (CYP3A4; 5 days, 100 μM) of the same compound?
Answer: 1.45

Question: Which “Inductive effect on CYP3A4 activity” value (CYP3A4) does the source give for `CCC1(c2ccccc2)C(=O)NC(=O)NC1=O` [PB, phenobarbital] here?
Answer: 6.70

Question: And the “Inductive effect on CYP2B6 activity” value (CYP2B6 [4])?
Answer: 14.69

Question: And the “Inductive effect on CYP2C19 activity (standardized)” value (CYP2C19 [5])?
Answer: 4.00

Question: Which “Inductive effect on CYP2B6 activity” value (CYP2B6 [2]; 50 μM) does the source give for `CO[C@H]1/C=C/O[C@@]2(C)Oc3c(C)c(O)c4c(O)c(c(/C=N/N5CCN(C)CC5)c(O)c4c3C2=O)NC(=O)/C(C)=C\C=C\[C@H](C)[C@H](O)[C@@H](C)[C@@H](O)[C@@H](C)[C@H](OC(C)=O)[C@@H]1C` [RIF, rifampicin, reference compound] here?
Answer: 5.15

Question: And the “Inductive effect on CYP2C19 activity (standardized)” value (CYP2C19 [3]; 50 μM)?
Answer: 15.21
